Source: patent US7001983B1, “Antipathogenic synthetic peptides and compositions comprising them” (priority 1997, dated 2006)
Square brackets hold non-standard residues; d marks the D form. Peptide text beside a SMILES is read from it.

Assays:
Format in all cases: cell-based
Bacillus megaterium Bm11 = details: 100% inhibition of growth after 18–20 h
Escherichia coli D21 = details: 100% inhibition of growth after 18–20 h
[1] = system: human red blood cells (hRBC); test: Hemolysis of human red blood cells; details: hRBC, 100 μM, 30 min at 37° C.
Procedure: (ix) Hemolysis of human red blood cells. The peptides were tested for their hemolytic activities against human red blood cells (hRBC). Fresh hRBC with EDTA were rinsed 3 times with PBS (35 mM phosphate buffer/0.15 M NaCl, pH 7.3) by centrifugation for 10 min at 800 g and resuspended in PBS. Peptides dissolved in PBS were then added to 50 μL of a solution of the stock hRBC in PBS to reach a final volume of 100 μL (final erythrocyte concentration, 5% v/v). The resulting suspension was incubated under agitation for 30 min at 37° C. The samples were then centrifuged at 800 g for 10 min. Release of hemoglobin was monitored by measuring the absorbance of the supernatant at 540 nm. Controls for zero hemolysis (blank) and 100% hemolysis consisted of hRBC suspended in PBS and Triton 1%, respectively.

| SMILES | Minimal Inhibitory Concentration B. megaterium (Bm11) (Bacillus megaterium Bm11) | Minimal Inhibitory Concentration E. coli (D21) (Escherichia coli D21) | % hemolysis at 100 μM [1] |
| --- | --- | --- | --- |
| CC(C)C[C@H](NC(=O)[C@H](CC(C)C)NC(=O)[C@@H](CC(C)C)NC(=O)[C@H](N)CCCCN)C(=O)N[C@H](CCCCN)C(=O)N[C@H](CC(C)C)C(=O)N[C@H](CC(C)C)C(=O)N[C@@H](CC(C)C)C(=O)N[C@H](CCCCN)C(=O)N[C@@H](CC(C)C)C(=O)N[C@H](CC(C)C)C(=O)N[C@H](CCCCN)C(N)=O [Peptide 26, [D]-K^1,5,9,12L^2,6,7,11-K4L8] (H-[dK][dL]LL[dK][dL][dL]L[dK]L[dL][dK]-NH2) | 0.5 µM | 4 µM | 0% |
| CC(C)C[C@H](NC(=O)[C@H](CC(C)C)NC(=O)[C@@H](CC(C)C)NC(=O)[C@H](N)CCCCN)C(=O)N[C@H](CCCCN)C(=O)N[C@H](CC(C)C)C(=O)N[C@H](CCCCN)C(=O)N[C@@H](CC(C)C)C(=O)N[C@H](CCCCN)C(=O)N[C@@H](CC(C)C)C(=O)N[C@H](CC(C)C)C(=O)N[C@H](CCCCN)C(N)=O [Peptide 27, [D]-K^1,5,7,9,12L^2,6,11-K5L7] (H-[dK][dL]LL[dK][dL][dK]L[dK]L[dL][dK]-NH2) | 0.2 µM | 7 µM | 0% |
| CC(C)C[C@H](NC(=O)[C@@H](CC(C)C)NC(=O)[C@H](CC(C)C)NC(=O)[C@@H](CC(C)C)NC(=O)[C@@H](N)CCCCN)C(=O)N[C@@H](CCCCN)C(=O)O [Peptide 28, [D]-L^2,4-K2L4] (H-K[dL]L[dL]LK-OH) | 50 µM | 200 µM | 0% |
| CC(C)C[C@H](NC(=O)[C@@H](CC(C)C)NC(=O)[C@H](CCCCN)NC(=O)[C@@H](CC(C)C)NC(=O)[C@H](CC(C)C)NC(=O)[C@@H](CC(C)C)NC(=O)[C@@H](N)CCCCN)C(=O)N[C@@H](CCCCN)C(=O)O [Peptide 29, [D]-L^2,4,6-K3L5] (H-K[dL]L[dL]K[dL]LK-OH) | 3 µM | 3 µM | 0% |
| C[C@H](NC(=O)[C@H](C)NC(=O)[C@H](CCCCN)NC(=O)[C@@H](C)NC(=O)[C@@H](C)NC(=O)[C@H](C)NC(=O)[C@@H](N)CCCCN)C(=O)N[C@H](C)C(=O)N[C@@H](CCCCN)C(=O)N[C@H](C)C(=O)N[C@@H](C)C(=O)N[C@@H](CCCCN)C(N)=O [Peptide 33, [D]-A^3,4,8,10-K4A8] (H-KA[dA][dA]KAA[dA]K[dA]AK-NH2) | 1 µM | 12 µM | 0% |
| CC(C)[C@H](NC(=O)[C@H](CCCCN)NC(=O)[C@H](NC(=O)[C@H](NC(=O)[C@@H](NC(=O)[C@@H](N)CCCCN)C(C)C)C(C)C)C(C)C)C(=O)N[C@H](C(=O)N[C@@H](C(=O)N[C@@H](CCCCN)C(=O)N[C@@H](C(=O)N[C@H](C(=O)N[C@@H](CCCCN)C(N)=O)C(C)C)C(C)C)C(C)C)C(C)C [Peptide 34, [D]-V^3,4,8,10-K4V8] (H-KV[dV][dV]KVV[dV]K[dV]VK-NH2) | 0.8 µM | 3.5 µM | 0% |
